# From patent US11299460B2, “MDM2 inhibitor, preparation method therefor, pharmaceutical composition thereof and use thereof” (SHANGHAI LONGWOOD BIOPHARMACEUTICALS CO., LTD., priority 2018, dated 2022)
# Columns and labels:
# [1] = system: p21 transcripts in SJSA-1 cells; assay: p21 assay (QRT-PCR of p21 transcripts in SJSA-1 cells); format: cell-based, human; settings: cell assay (SJSA-1 cell), p21 induction, 7 hours incubation
# Text: Inhibition of the interaction between hMDM2 and p53 results in the activation of the p53 pathway via the stabilization and accumulation of p53. P53 activates the transcription of many genes, one of which is p21<WAFT/CIP1>. To evaluate the potency of hMDM2 inhibitors, quantitative reverse transcription polymerase chain reaction (QRT PCR) was used to measure the level of p21 transcripts of compound related cells relative to that of control cells treated with dimethyl sulfoxide (DMSO).
# In the first day, SJSA-1 cells were inoculated into 100 μL growth medium (RPMI1640; 10 mM HEPES; 1 mM sodium pyruvate; 1× penicillin streptomycin glutamine (PSQ) and 10% FBS, all reagents were obtained from Invitrogen) at a density of 3×10^4 cells in 96-well cell culture plate. The cells were cultured overnight at 37° C. and 5% CO2 atmosphere.
# In the second day, hMDM2 inhibitor was gradient diluted in DMSO(Sigma-Aldrich; St. Louis, Mo.). 5 μl of each compound dilution were added into 245 μl filtered assay medium (RPMI1640, 10% FBS, 10 mM HEPES, 1 mM sodium pyruvate and 1×PSQ). Or the assay was conducted with the presence of 10% human serum or 10% mouse serum, or without serum. Growth medium was removed from inoculated SJSA-1 cell culture plate and replaced by 100 μL assay medium for each well. Then 100 μL culture medium containing diluted inhibitor was added into each well to a final volume 200 μL. The final concentration of the compound was in the range of 0.049 μm-50 μm by dose titration with DMSO as control. The cells were incubated at 37° C. and 5% CO2 for 7 hours with the presence of inhibitor. When incubation was completed, growth medium was removed from cells and the plate was stored at −80° C.
# In the third day, giagen BioRobot Universal workstation was used to purify total RNA from SJSA-1 cells treated with inhibitor and DMSO respectively. The purification procedure herein was according to RNeasy96BioRobot8000 test kit provided by Qiagen, Valencia, Calif.
# To measure the level of existing p21 transcripts, QRT-PCR was introduced. The levels of p21, housekeeping genes and glyceraldehyde 3-phosphate dehydrogenase (GAPDH) were determined by the total RNA from each inhibitor- or DMSO-treated well by duplicated test. The QRT-PCR reaction was performed on the Applied Biosystems prism 7900ht instrument using the relative quantitative (ΔΔ Ct) method according to the following cycle conditions: 48° C. for 30 minutes, then 95° C. for 10 minutes, and then was 40 cycles consisting of 95° C. for 15 seconds and 60° C. for 1 minute. The data were analyzed by using Applied Biosystems SDS2.2 software, with GAPDH as inner control and DMSO treated samples as calibrators. SDS2.2 software calculated the relative quantification (RQ) or increased fold of p21 level relative to DMSO control for each treated sample. The maximum (100%) p21 induction fold was defined by the maximum value of the fitting curve of the reference compound. The p21 induction fold of each inhibitor dose tested was converted to a value representing the percentage of the maximum value. XLFit software (ID business solutions, Alameda, Calif.) was used to make dose-response curve to calculate the IC50 transit value of each inhibitor tested.
# GST-hMDM2 (aa1-188) = target: T1, GST-hMDM2 (aa1-188) (Homo sapiens, UniProt Q00987); assay: Homogeneous time resolved fluorometry (HTRF assay), hMDM2/p53 interaction; format: binding; settings: HTRF analysis; GST-hMDM2 (aa1-188) / biotinylated-p53 (aa1-83)
# T1 construct: The amino acid residues 1-188 of human MDM2 were expressed as GST-hMDM2 fusion protein; made in house; host or cells: E. coli
# T1 sequence (Q00987 1-188): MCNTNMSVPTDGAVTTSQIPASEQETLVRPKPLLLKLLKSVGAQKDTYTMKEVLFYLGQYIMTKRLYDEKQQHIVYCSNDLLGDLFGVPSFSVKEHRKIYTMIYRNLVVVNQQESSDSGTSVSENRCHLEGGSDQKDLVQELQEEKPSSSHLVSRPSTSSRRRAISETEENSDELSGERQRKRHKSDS
# Protocol: Residues 1-83 of human p53 were expressed as avitag <TM>-trxa-6×his fusion protein (biotinlabelled p53) in E. coli. Each protein was separated from cell homogenate by affinity chromatography.
# Specifically, 10 μL GST-hMDM2 was incubated with 10 uL diluted compound in 10% DMSO for 20 minutes at room temperature. 20 μL biotinlabelled-p53 was added to the mixture of GST-hMDM2 and then incubated at room temperature for 60 min. A 10 μL detection buffer consisting of SA-XLent, anti-GST cavernous compound antibody and KF was added to the reaction solution consisting of GST-hMDM2, biotinlabelled-p53 and the compound and was placed at room temperature to achieve equilibrium and maintained for more than 4 h. The final concentration of DMSO in the reaction solution was 2%. Time resolved fluorescence were measured on a microplate multi label reader. The inhibition percentage was calculated relative to nutlin-3.
Structure (SMILES),"IC50 ([1]; Homo sapiens, SJSA-1, 7 h)",IC50 (GST-hMDM2 (aa1-188)),IC50 [1]
"CC(C)[C@@H](CS(=O)(=NC#N)C(C)C)N1C(=O)[C@@](C)(CC(=O)O)C[C@H](c2cccc(Cl)c2)[C@H]1c1ccc(Cl)cc1 (single isomer, unassigned) [Compound 006]",< 1000 nM,< 10 nM,–
CC(C)[C@@H](CS(=N)(=O)C(C)C)N1C(=O)[C@@](C)(CC(=O)O)C[C@H](c2cccc(Cl)c2)[C@H]1c1ccc(Cl)cc1 (stereo partly drawn) [Compound 001],< 1000 nM,< 10 nM,–
CC(C)[C@@H](CS(=N)(=O)C(C)C)N1C(=O)[C@@](C)(CC(=O)O)C[C@H](c2cccc(Cl)c2)[C@H]1c1ccc(Cl)cc1 (stereo partly drawn) [Compound 002],–,< 10 nM,< 1000 nM
"CN=S(=O)(C[C@H](C(C)C)N1C(=O)[C@@](C)(CC(=O)O)C[C@H](c2cccc(Cl)c2)[C@H]1c1ccc(Cl)cc1)C(C)C (stereo partly drawn) [Compound 003, 2-((3R,5R,6S)-5-(3-chlorophenyl)-6-(4-chlorophenyl)-3-methyl-1-((2S)-3-methyl-1-(N-methyl-2-propylsulfonamido)butyl-2-)-2-oxo-piperidine-3-yl)acetic acid]",< 1000 nM,< 10 nM,–
CC(C)[C@@H](CS(=N)(=O)C(C)C)N1C(=O)[C@@](C)(CC(=O)Nc2ccc(C(=O)O)cc2)C[C@H](c2cccc(Cl)c2)[C@H]1c1ccc(Cl)cc1 (stereo partly drawn) [Compound 007],1000 to 10000 nM,< 10 nM,–
COc1cc(NC(=O)C[C@@]2(C)C[C@H](c3cccc(Cl)c3)[C@@H](c3ccc(Cl)cc3)N([C@H](CS(=N)(=O)C(C)C)C(C)C)C2=O)ccc1C(=O)O (stereo partly drawn) [Compound 008],< 1000 nM,< 10 nM,–
COc1cc(C(=O)O)ccc1NC(=O)C[C@@]1(C)C[C@H](c2cccc(Cl)c2)[C@@H](c2ccc(Cl)cc2)N([C@H](CS(=N)(=O)C(C)C)C(C)C)C1=O (stereo partly drawn) [Compound 009],1000 to 10000 nM,< 10 nM,–
CC(C)[C@@H](CS(=N)(=O)C(C)C)N1C(=O)[C@@](C)(CC(=O)NC23CCC(C(=O)O)(CC2)CC3)C[C@H](c2cccc(Cl)c2)[C@H]1c1ccc(Cl)cc1 (stereo partly drawn) [Compound 010],1000 to 10000 nM,10 to 100 nM,–
CC(C)[C@@H](CS(=N)(=O)C(C)C)N1C(=O)[C@@](C)(CC(=O)N[C@H]2CC[C@H](O)CC2)C[C@H](c2cccc(Cl)c2)[C@H]1c1ccc(Cl)cc1 (stereo partly drawn) [Compound 011],1000 to 10000 nM,10 to 100 nM,–
CC(C)[C@@H](CS(=N)(=O)C(C)C)N1C(=O)[C@@](C)(CC(=O)Nc2cccc(Br)c2)C[C@H](c2cccc(Cl)c2)[C@H]1c1ccc(Cl)cc1 (stereo partly drawn) [Compound 012],1000 to 10000 nM,> 100 nM,–
Cc1c(Br)cccc1NC(=O)C[C@@]1(C)C[C@H](c2cccc(Cl)c2)[C@@H](c2ccc(Cl)cc2)N([C@H](CS(=N)(=O)C(C)C)C(C)C)C1=O (stereo partly drawn) [Compound 013],1000 to 10000 nM,> 100 nM,–
CC(C)[C@@H](CS(=N)(=O)C(C)C)N1C(=O)[C@@](C)(CC(=O)Nc2ccc(F)cc2Br)C[C@H](c2cccc(Cl)c2)[C@H]1c1ccc(Cl)cc1 (stereo partly drawn) [Compound 014],1000 to 10000 nM,> 100 nM,–
CC(C)[C@@H](CS(=N)(=O)C(C)C)N1C(=O)[C@@](C)(CC(=O)Nc2ccccc2)C[C@H](c2cccc(Cl)c2)[C@H]1c1ccc(Cl)cc1 (stereo partly drawn) [Compound 015],1000 to 10000 nM,10 to 100 nM,–
CC(C)[C@@H](CS(=N)(=O)C(C)C)N1C(=O)[C@@](C)(CC(=O)Nc2cccc(C(F)(F)F)c2)C[C@H](c2cccc(Cl)c2)[C@H]1c1ccc(Cl)cc1 (stereo partly drawn) [Compound 016],1000 to 10000 nM,> 100 nM,–
CC(C)[C@@H](CS(=N)(=O)C(C)C)N1C(=O)[C@@](C)(CC(=O)Nc2ccc(F)c(Br)c2)C[C@H](c2cccc(Cl)c2)[C@H]1c1ccc(Cl)cc1 (stereo partly drawn) [Compound 017],1000 to 10000 nM,> 100 nM,–
CC(C)[C@@H](CS(=N)(=O)C(C)C)N1C(=O)[C@@](C)(CC(=O)NS(C)(=O)=O)C[C@H](c2cccc(Cl)c2)[C@H]1c1ccc(Cl)cc1 (stereo partly drawn) [Compound 018],1000 to 10000 nM,10 to 100 nM,–
CC(C)[C@@H](CS(=N)(=O)C(C)C)N1C(=O)[C@@](C)(CC(=O)NS(=O)(=O)C2(C)CC2)C[C@H](c2cccc(Cl)c2)[C@H]1c1ccc(Cl)cc1 (stereo partly drawn) [Compound 019],1000 to 10000 nM,10 to 100 nM,–
CC(C)[C@@H](CS(=N)(=O)C(C)C)N1C(=O)[C@@](C)(CC(=O)NS(=O)(=O)c2ccccc2)C[C@H](c2cccc(Cl)c2)[C@H]1c1ccc(Cl)cc1 (stereo partly drawn) [Compound 020],1000 to 10000 nM,10 to 100 nM,–
Cc1ccc(S(=O)(=O)NC(=O)C[C@@]2(C)C[C@H](c3cccc(Cl)c3)[C@@H](c3ccc(Cl)cc3)N([C@H](CS(=N)(=O)C(C)C)C(C)C)C2=O)cc1 (stereo partly drawn) [Compound 021],1000 to 10000 nM,10 to 100 nM,–
CC(C)[C@@H](CS(=N)(=O)C(C)C)N1C(=O)[C@@](C)(CC(=O)NS(=O)(=O)c2ccc(F)cc2)C[C@H](c2cccc(Cl)c2)[C@H]1c1ccc(Cl)cc1 (stereo partly drawn) [Compound 022],1000 to 10000 nM,10 to 100 nM,–
COc1ccc(S(=O)(=O)NC(=O)C[C@@]2(C)C[C@H](c3cccc(Cl)c3)[C@@H](c3ccc(Cl)cc3)N([C@H](CS(=N)(=O)C(C)C)C(C)C)C2=O)cc1 (stereo partly drawn) [Compound 023],< 1000 nM,10 to 100 nM,–
CC(C)[C@@H](CS(=N)(=O)C(C)C)N1C(=O)[C@@](C)(CC(=O)NS(=O)(=O)c2ccc(C#N)cc2)C[C@H](c2cccc(Cl)c2)[C@H]1c1ccc(Cl)cc1 (stereo partly drawn) [Compound 024],1000 to 10000 nM,10 to 100 nM,–
CC(C)[C@@H](CS(=O)(=O)C(C)C)N1C(=O)[C@@](C)(CC(=O)NS(=N)(=O)C2CC2)C[C@H](c2cccc(Cl)c2)[C@H]1c1ccc(Cl)cc1 (stereo partly drawn) [Compound 025],1000 to 10000 nM,10 to 100 nM,–
CC(C)[C@@H](CS(=O)(=O)C(C)C)N1C(=O)[C@@](C)(CC(=O)NS(=N)(=O)C2(C)CC2)C[C@H](c2cccc(Cl)c2)[C@H]1c1ccc(Cl)cc1 (stereo partly drawn) [Compound 028A],< 1000 nM,10 to 100 nM,–
CC(C)[C@@H](CS(=O)(=O)C(C)C)N1C(=O)[C@@](C)(CC(=O)NS(=N)(=O)C2(C)CC2)C[C@H](c2cccc(Cl)c2)[C@H]1c1ccc(Cl)cc1 (stereo partly drawn) [Compound 028B],–,10 to 100 nM,1000 to 10000 nM
Cc1ccc(S(=N)(=O)NC(=O)C[C@@]2(C)C[C@H](c3cccc(Cl)c3)[C@@H](c3ccc(Cl)cc3)N([C@H](CS(=O)(=O)C(C)C)C(C)C)C2=O)cc1 (stereo partly drawn) [Compound 029],1000 to 10000 nM,> 100 nM,–
CC(C)[C@@H](CS(=O)(=NC(N)=O)C(C)C)N1C(=O)[C@@](C)(CC(=O)O)C[C@H](c2cccc(Cl)c2)[C@H]1c1ccc(Cl)cc1 (stereo partly drawn) [Compound 034],< 1000 nM,< 10 nM,–
CCN=S(=O)(C[C@H](C(C)C)N1C(=O)[C@@](C)(CC(=O)O)C[C@H](c2cccc(Cl)c2)[C@H]1c1ccc(Cl)cc1)C(C)C (stereo partly drawn) [Compound 035],< 1000 nM,< 10 nM,–
CC(=O)N=[S@@](=O)(C[C@H](C(C)C)N1C(=O)[C@@](C)(CC(=O)O)C[C@H](c2cccc(Cl)c2)[C@H]1c1ccc(Cl)cc1)C(C)C [Compound 039],< 1000 nM,< 10 nM,–
C=CC(=O)N=[S@@](=O)(C[C@H](C(C)C)N1C(=O)[C@@](C)(CC(=O)O)C[C@H](c2cccc(Cl)c2)[C@H]1c1ccc(Cl)cc1)C(C)C [Compound 041],< 1000 nM,10 to 100 nM,–
